From US12559750B2, “Methods and compositions for treatment of polycystic kidney disease” (Regulus Therapeutics Inc., priority 2021, dated 2026)
Each block holds one sequence with its values, some of them ahead of it.

Tested on: AMPA-R
Test: [3H]AMPA radioligand binding assay on rat brain synaptic membranes;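 also: competition binding in which test compounds at rising concentrations displace [3H]AMPA from AMPA-R on rat brain synaptic membranes, with reduced bound radioligand as read-out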
Method: The activity of anti-miR-17 compounds was evaluated in a radioligand binding assay which measured the binding of the [^3H] AMPA ligand to the AMPA-R present on rat brain synaptic membranes, in the presence of increasing concentrations of anti-miR-17 compound, anti-miR-17 compounds with affinity for the AMPA-R will bind to and compete with the binding of the [^3H] AMPA ligand.
5.0 nM of the ligand [^3H] AMPA, 1.0 mM of the non-specific ligand L-Glutamic acid, and anti-miR compound at uM concentrations were incubated with synaptic membranes prepared from Wistar rat cerebral cortex for 90 minutes.
The compounds were tested in the radioligand binding assay described herein, to determine the ability of the anti-miR-17 compounds to and compete with the binding of the [3H] AMPA ligand.

IC50 (Experiment #2): > 100 µM
% Inhibition @ 0.1 uM (Experiment #2, 0.1 uM): −11.8%
% Inhibition @ 1 uM (Experiment #2, 1 uM): 2.7%
% Inhibition @ 10 uM (Experiment #2, 10 uM): 13%
% Inhibition @ 100 uM (Experiment #2, 100 uM): 32.6%
Sequence: AEGECMAFCFUFUMTEGE [RG-NG-1009]

IC50 (Experiment #2): > 100 µM
% Inhibition @ 0.1 uM (Experiment #2, 0.1 uM): 14.9%
% Inhibition @ 1 uM (Experiment #2, 1 uM): −5.5%
% Inhibition @ 10 uM (Experiment #2, 10 uM): 8.6%
% Inhibition @ 100 uM (Experiment #2, 100 uM): 20.4%
Sequence: ASGSCMAFCFUFUMUS [RG-NG-1014]

IC50 (Experiment #2): > 100 µM
% Inhibition @ 0.1 uM (Experiment #2, 0.1 uM): 15.7%
% Inhibition @ 1 uM (Experiment #2, 1 uM): 2.1%
% Inhibition @ 10 uM (Experiment #2, 10 uM): 2%
% Inhibition @ 100 uM (Experiment #2, 100 uM): 2.7%
Sequence: ASGSCSALCFUFUMUSCS [RG-NG-1028]

IC50 (Experiment #3): > 100 µM
% Inhibition @ 0.1 uM (Experiment #3, 0.1 uM): −17%
% Inhibition @ 1 uM (Experiment #3, 1 uM): −4.7%
% Inhibition @ 10 uM (Experiment #3, 10 uM): 6.5%
% Inhibition @ 100 uM (Experiment #3, 100 uM): 35.2%
Sequence: ASGSCMAFCFUFUMTEGE [RG-NG-1024]

IC50 (Experiment #2): > 100 µM
% Inhibition @ 0.1 uM (Experiment #2, 0.1 uM): −3.3%
% Inhibition @ 1 uM (Experiment #2, 1 uM): −1.1%
% Inhibition @ 10 uM (Experiment #2, 10 uM): −3.5%
% Inhibition @ 100 uM (Experiment #2, 100 uM): 2.3%
Sequence: ASGSCMALCFUFUMUSCS [RG-NG-1026]

IC50 (Experiment #2): > 100 µM
% Inhibition @ 0.1 uM (Experiment #2, 0.1 uM): 2.9%
% Inhibition @ 1 uM (Experiment #2, 1 uM): 6.5%
% Inhibition @ 10 uM (Experiment #2, 10 uM): 15%
% Inhibition @ 100 uM (Experiment #2, 100 uM): 1.9%
Sequence: AMAMGLCLALCLUMTLUCM [RG-NG-1030]

% Inhibition @ Concentration 100 uM (Table 8 (3′-terminal nucleobase/sugar variants), 100 uM): 30.2%
% Inhibition @ Concentration 0.1 uM (Table 8, 0.1 uM): 27.3%
% Inhibition @ Concentration 1 uM (Table 8, 1 uM): 27%
% Inhibition @ Concentration 10 uM (Table 8, 10 uM): 35.8%
Sequence: ASGSCMAFCFUFUMUSED [RG-NG-1039]

IC50 (Experiment #2): 3.44 µM
% Inhibition @ 0.1 uM (Experiment #2, 0.1 uM): 0.7%
% Inhibition @ 1 uM (Experiment #2, 1 uM): 31.3%
% Inhibition @ 10 uM (Experiment #2, 10 uM): 70.1%
% Inhibition @ 100 uM (Experiment #2, 100 uM): 86.4%
Sequence: AEGECMAFCFUFUMUSGS [RG-NG-1010]

Further lines, the sequence ahead of its results:

Sequence: TEGSTEAASGSCMAFCFUFUMUSCS (TGTAAGCACUUUC; anti-miR; 2'-MOE at 1, 3, cEt at 2, 5, 6, 12, 13, 2'-O-methyl at 7, 11, 2'-fluoro at 8, 9, 10, other sugars and backbone not given here) [RG-NG-1020]
IC50 (Experiment #3): > 100 µM
% Inhibition @ 0.1 uM (Experiment #3, 0.1 uM): 17%
% Inhibition @ 1 uM (Experiment #3, 1 uM): 6.6%
% Inhibition @ 10 uM (Experiment #3, 10 uM): −23.3%
% Inhibition @ 100 uM (Experiment #3, 100 uM): −7.9%

Sequence: ASCSTGSUSAASGSCMAFCFUFUMUSCS (ACTGUAAGCACUUUC; cEt at 1, 2, 4, 5, 7, 8, 14, 15, 2'-O-methyl at 9, 13, 2'-fluoro at 10, 11, 12, other sugars and backbone not given here) [RG-NG-1019]
IC50 (Experiment #3): > 100 µM
% Inhibition @ 0.1 uM (Experiment #3, 0.1 uM): 12.9%
% Inhibition @ 1 uM (Experiment #3, 1 uM): 17.2%
% Inhibition @ 10 uM (Experiment #3, 10 uM): 15.6%
% Inhibition @ 100 uM (Experiment #3, 100 uM): 21%

Sequence: USASAMGCSASCSUMUMUSGS (antisense UAAGCACUUUG; cEt at 1, 2, 5, 6, 7, 10, 11, 2'-O-methyl at 3, 8, 9, other sugars and backbone not given here) [RG-NG-1005]
IC50 (Experiment #1): > 100 µM
% Inhibition @ 0.1 uM (Experiment #1, 0.1 uM): 10.8%
% Inhibition @ 1 uM (Experiment #1, 1 uM): −1.3%
% Inhibition @ 10 uM (Experiment #1, 10 uM): 0.8%
% Inhibition @ 100 uM (Experiment #1, 100 uM): 28.3%

Sequence: TEAASGSCMAFCFUFUMUSCS (TAAGCACUUUC; 2'-MOE at 1, cEt at 3, 4, 10, 11, 2'-O-methyl at 5, 9, 2'-fluoro at 6, 7, 8, other sugars and backbone not given here) [RG-NG-1021]
IC50 (Experiment #3): > 100 µM
% Inhibition @ 0.1 uM (Experiment #3, 0.1 uM): −2%
% Inhibition @ 1 uM (Experiment #3, 1 uM): −10.9%
% Inhibition @ 10 uM (Experiment #3, 10 uM): −11.5%
% Inhibition @ 100 uM (Experiment #3, 100 uM): −1.5%

Sequence: ASGSCSASCSUSUSUS [RG-NG-1002]
IC50 (Experiment #1): > 100 µM
% Inhibition @ 0.1 uM (Experiment #1, 0.1 uM): 0%
% Inhibition @ 1 uM (Experiment #1, 1 uM): −2.0%
% Inhibition @ 10 uM (Experiment #1, 10 uM): −16.9%
% Inhibition @ 100 uM (Experiment #1, 100 uM): 24.0%
IC50 (Experiment #2): > 100 µM
% Inhibition @ 0.1 uM (Experiment #2, 0.1 uM): −5.5%
% Inhibition @ 1 uM (Experiment #2, 1 uM): 4.6%
% Inhibition @ 10 uM (Experiment #2, 10 uM): −2.1%
% Inhibition @ 100 uM (Experiment #2, 100 uM): 24.6%

Sequence: ASGSCMASCMUSUMUSGS [RG-NG-1003]
IC50 (Experiment #1): 9.26 µM
% Inhibition @ 0.1 uM (Experiment #1, 0.1 uM): 5.7%
% Inhibition @ 1 uM (Experiment #1, 1 uM): 13.9%
% Inhibition @ 10 uM (Experiment #1, 10 uM): 56.9%
% Inhibition @ 100 uM (Experiment #1, 100 uM): 77.8%

Sequence: TEAFASGSCMAFCFUFUMUSCS (TAAGCACUUUC; 2'-MOE, S-cEt, 2'-F, 2'-OMe modifications; modified_base 1 OTHER; thymine; misc_feature 1..11 Synthetic: RG-NG-1022; modified_base 1..2 OTHER; 2'-O-methoxyethyl nucleoside; modified_base 3..4 OTHER; S-constrained ethyl nucleoside; modified_base 5 OTHER; 2'-O-methyl nucleoside; modified_base 6..8 OTHER; 2'-fluoro nucleoside; modified_base 9 OTHER; modified_base 10..11 OTHER)
IC50 (Experiment #3): > 100 µM
% Inhibition @ 0.1 uM (Experiment #3, 0.1 uM): −23.5%
% Inhibition @ 1 uM (Experiment #3, 1 uM): −5.4%
% Inhibition @ 10 uM (Experiment #3, 10 uM): −7%
% Inhibition @ 100 uM (Experiment #3, 100 uM): −10.9%

Sequence: USASASGSCSASCSUSUSUSGS [RG-NG-1004]
IC50 (Experiment #1): 17.3 µM
% Inhibition @ 0.1 uM (Experiment #1, 0.1 uM): −4.7%
% Inhibition @ 1 uM (Experiment #1, 1 uM): 4.7%
% Inhibition @ 10 uM (Experiment #1, 10 uM): 44.2%
% Inhibition @ 100 uM (Experiment #1, 100 uM): 76.1%

Sequence: ASGSCFAFCFUFUFUSGS [RG-NG-1007]
IC50 (Experiment #2): 1.69 µM
% Inhibition @ 0.1 uM (Experiment #2, 0.1 uM): 3.1%
% Inhibition @ 1 uM (Experiment #2, 1 uM): 39.7%
% Inhibition @ 10 uM (Experiment #2, 10 uM): 83.2%
% Inhibition @ 100 uM (Experiment #2, 100 uM): 94.3%

Sequence: ALGLCLALCLTLTLTLGL [RG-NG-1006]
IC50 (Experiment #1): 2.77 µM
% Inhibition @ 0.1 uM (Experiment #1, 0.1 uM): 6.7%
% Inhibition @ 1 uM (Experiment #1, 1 uM): 35.3%
% Inhibition @ 10 uM (Experiment #1, 10 uM): 68.9%
% Inhibition @ 100 uM (Experiment #1, 100 uM): 93.9%
